PMC3848067 (Acta Naturae, 2013)
Read-outs that look alike come from different tables or passages of the source.

Columns and labels:
[1] = rabbits; cited from earlier work
[2] = dogs, 50 mg (2–5 mg/kg), cited from earlier work
[3] = canine whole blood at 37°С; cited from earlier work
[4] = single oral dose of phosphonate 2, 200 mg/kg; cited from earlier work
[5] = rats, oral, 20 mg/kg; cited from earlier work
[6] = rabbits, single oral dose of 7, 70 and 200 mg/kg; cited from earlier work
mice [7] = settings: cited from earlier work
dogs = settings: intragastric, 166 mg/kg daily for 4 weeks; cited from earlier work
mice [8] = settings: cited from earlier work; remark: listed apart in the source
rats [9] = settings: cited from earlier work
[10] = rabbits, oral course, 1 g in 4–5 ml of water, after 6 and 18 h during 5 days; cited from earlier work
Salmonella typhimurium = settings: concentrations of up to 1 mg/dish; cited from earlier work
pregnant female rats = settings: intragastric 133 mg/kg daily on days 1–19 of gestation; cited from earlier work
cultured cells = settings: cited from earlier work
[11] = rats, intraperitoneal, 20 mg/kg; parameters of phosphonate 2; cited from earlier work
guinea pigs [12] = settings: doses and sensibilization schemes tested; cited from earlier work
[13] = dogs, cited from earlier work; for AUC / Cmax / Cmax/AUC / MRT / t1/2 / tmax: value for the tested compound (2 or its metabolite AZT)
mice [14] = settings: cited from earlier work; remark: listed apart in the source
[15] = cited from earlier work
[16] = pharmacokinetics after single-dose oral administration to dogs; settings: comparison from Table 2
[17] = extrapolated for single-dose oral administration of 600 mg of phosphonate 2
mouse embryonic cells = settings: doses 50-fold higher than maximum recommended therapeutic dose for humans; cited from earlier work
guinea pigs [18] = settings: sensibilizing doses 133 and 266 mg/kg, provoking dose 266 mg/kg on days 14 and 21; cited from earlier work
rats [19] = settings: intragastric, 133 and 266 mg/kg daily for 3 months; cited from earlier work
MT-4 cells = settings: MT-4 cell line; cited from earlier work
HIV-1 = settings: cited from earlier work
[20] = system: bone marrow cells of hybrid mice F1(CBAxC57Bl6); settings: doses 50-fold higher than maximum recommended therapeutic dose for humans; cited from earlier work
rats [21] = settings: Wistar rats, intragastric 133 mg/kg daily, 10 weeks males and 2 weeks females; cited from earlier work
[22] = single oral dose of capsules of 2, 10 mg/kg
[23] = single oral dose of capsules of 2, 20 mg/kg
[24] = single oral dose of capsules of 2, 40 mg/kg

Cc1cn([C@H]2C[C@H](N=[N+]=[N-])[C@@H](COP(=O)(O)C(N)=O)O2)c(=O)[nH]c1=O [Compound 2, AZT 5’-aminocarbonyl phosphonate]
AZT in peripheral blood after intravenous administration [1]: AZT has not been detected | AZT in blood plasma after intravenous administration [2]: No AZT has been detected | AUC t ([2]; intravenous, parameters of 2): 2190 ng·h/mL | CL ([2]; intravenous, parameters of 2): 16.8 L/h | MRT ([2]; intravenous, parameters of 2): 0.74 h | Vss ([2]; intravenous, parameters of 2): 12.4 L | t1/2 ([2]; intravenous, parameters of 2): 0.35 h | Т1/2 in canine whole blood [3]: > 24 h | original substance in daily urine and feces [4]: could not be detected | original phosphonate 2 in blood plasma [5]: No original phosphonate 2 was detected | presence of AZT in blood [6]: AZT is present in the blood in all the cases | popliteal lymph node reaction (mice [7]): not to affect the popliteal lymph node reaction | tolerability, capsules (dogs): well-tolerated by the animals | mean lethal dose (LD50) (mice [8]; intraperitoneal administration to mice): ≥ 5000 mg/kg | signs after single-dose administration at toxic doses (mice [8]; mice, 2000–50000 mg/kg): short-term agitation in animals replaced by distress, inertness and adynamia | signs after single-dose administration at toxic doses (rats [9]; rats, 2000–50000 mg/kg): short-term agitation in animals replaced by distress, inertness and adynamia | LD50 (rats [9]; single-dose intragastric administration to rats): higher than 40 g/kg | accumulation in blood [10]: gradual accumulation | number of revertants in the Ames test (Salmonella typhimurium): does not increase the number of revertants | embryotoxic and teratogenic effects (pregnant female rats): neither embryotoxic nor teratogenic effects | efficiency of penetration into cells, times lower than that of AZT (cultured cells): 10–100 times | efficiency of penetration into cells, times lower than that of phosphazide (cultured cells): approximately 6 times | AUC0–t [11]: 8020 ng·h/mL | MRT [11]: 0.82 h | Vss [11]: 0.37 L | t1/2 [11]: 0.42 h | СL [11]: 0.45 L/h | allergic effect in type III hypersensitivity reaction (guinea pigs [12]): no allergic effect | bioavailability of 5’-aminocarbonyl phosphonate 2 ([13]; administered orally at specified doses): 4.7% | bioavailability of AZT after 2 had been administered orally ([13]; oral): 8% | AUC [13, 22]: 470 ± 150 ng·h/mL | Cmax [13, 22]: 310 ± 90 ng/mL | Cmax/AUC [13, 22]: 0.662 ± 0.066 h⁻¹ | MRT [13, 22]: 2.43 ± 0.04 h | t1/2 [13, 22]: 0.62 ± 0.1 h | tmax [13, 22]: 1.5 ± 0.25 h | AUC [13, 23]: 980 ± 440 ng·h/mL | Cmax [13, 23]: 510 ± 180 ng/mL | Cmax/AUC [13, 23]: 0.561 ± 0.122 h⁻¹ | MRT [13, 23]: 2.65 ± 0.16 h | t1/2 [13, 23]: 0.81 ± 0.2 h | tmax [13, 23]: 1.6 ± 0.2 h | AUC [13, 24]: 1250 ± 860 ng·h/mL | Cmax [13, 24]: 510 ± 260 ng/mL | Cmax/AUC [13, 24]: 0.478 ± 0.117 h⁻¹ | MRT [13, 24]: 2.87 ± 0.49 h | t1/2 [13, 24]: 0.59 ± 0.2 h | tmax [13, 24]: 1.75 ± 0.27 h | tmax of AZT ([13]; single oral dose of the named compound equivalent to 20 mg of AZT/kg): 4 h | primary immune response (mice [14]; F1(CBAxC57BI6) mice, 332 mg/kg): reduced the primary immune response to a certain extent | hypersensitivity of the decelerated type reaction (mice [14]; mice, 166 and 332 mg/kg): nor the hypersensitivity of the decelerated type reaction | number of nuclear cells in spleen (mice [14]; mice, 166 and 332 mg/kg): affects neither the number of nuclear cells in spleen | half-life in 100% human blood serum [15]: over 6 h | Cmax of AZT, times lower than for phosphazide [16]: 2.5 times | expected AZT concentration in human blood plasma [17]: 100 to 115 ng/mL | dominant lethal mutations in mouse embryonic cells (mouse embryonic cells): nor affected the number of dominant lethal mutations | anaphylactic shock (guinea pigs [18]): no anaphylactic shock | tolerability, chronic administration (rats [19]): well-tolerated by animals | toxicity, times lower than that of AZT (MT-4 cells): 34–50 times | toxicity, times lower than that of phosphazide (MT-4 cells): 12.5–15 times | antiviral activity (inhibition of viral replication) relative to AZT (HIV-1; HIV-infected MT-4 cells): inferior to that of AZT by about an order of magnitude | antiviral activity, times lower than that of phosphazide (HIV-1; MT-4 cell line): 3–4.5 times | selectivity index compared to AZT and phosphazide (HIV-1; MT-4 cell line): higher | chromosomal aberrations in mouse bone marrow cells [20]: neither caused an increase in the number of chromosomal aberrations | effect on animal reproduction function (rats [21]): no effects
